Source: patent publication US20150225369A1, “DDR2 INHIBITORS FOR THE TREATMENT OF OSTEOARTHRITIS” (Merck Patent GmbH, priority 2012, published 2015)
Read-outs that look alike come from different tables or passages of the source.

Tests used:
[1] = target: T1, His-tagged human recombinant DDR-2 kinase domain (His-TEV-DDR2 467-855 aa) (Homo sapiens, UniProt Q16832); assay: Autophosphorylation assay for biochemical activity testing of DDR2 (HTRF)
T1 construct: His-TEV-DDR2 467-855 aa
T1 sequence (Q16832 467-855): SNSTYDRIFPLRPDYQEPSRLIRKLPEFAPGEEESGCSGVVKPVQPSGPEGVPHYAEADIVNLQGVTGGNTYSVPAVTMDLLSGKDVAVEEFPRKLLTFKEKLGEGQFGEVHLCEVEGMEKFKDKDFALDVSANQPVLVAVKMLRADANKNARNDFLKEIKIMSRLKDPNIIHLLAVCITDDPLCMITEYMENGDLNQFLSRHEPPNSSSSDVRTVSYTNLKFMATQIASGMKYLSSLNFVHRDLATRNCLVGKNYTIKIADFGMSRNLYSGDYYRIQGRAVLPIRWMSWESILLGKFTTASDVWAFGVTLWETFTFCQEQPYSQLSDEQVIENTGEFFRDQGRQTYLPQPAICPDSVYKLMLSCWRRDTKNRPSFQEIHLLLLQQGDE
Summary of the method: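 Phospho-tyrosine was detected by HTRF between XL665 anti-6His and cryptate anti-phosphotyrosine PT66 antibodies, using the emission ratio. Inhibition was referenced to the inhibitor-free reaction.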

[2] = target: T2, HEK293 transfected with human DDR2 (Homo sapiens, UniProt Q16832); assay: Phospho-DDR2 cellular assay (collagen II induced DDR2 phosphorylation, ELISA); type: cell-based; details: read-out: IC50 [p-DDR2]
T2 construct: expressed in transfected cells; host or cells: HEK293 (PLT460F_(DDR2)-P7-1)
T2 sequence (Q16832 22-855): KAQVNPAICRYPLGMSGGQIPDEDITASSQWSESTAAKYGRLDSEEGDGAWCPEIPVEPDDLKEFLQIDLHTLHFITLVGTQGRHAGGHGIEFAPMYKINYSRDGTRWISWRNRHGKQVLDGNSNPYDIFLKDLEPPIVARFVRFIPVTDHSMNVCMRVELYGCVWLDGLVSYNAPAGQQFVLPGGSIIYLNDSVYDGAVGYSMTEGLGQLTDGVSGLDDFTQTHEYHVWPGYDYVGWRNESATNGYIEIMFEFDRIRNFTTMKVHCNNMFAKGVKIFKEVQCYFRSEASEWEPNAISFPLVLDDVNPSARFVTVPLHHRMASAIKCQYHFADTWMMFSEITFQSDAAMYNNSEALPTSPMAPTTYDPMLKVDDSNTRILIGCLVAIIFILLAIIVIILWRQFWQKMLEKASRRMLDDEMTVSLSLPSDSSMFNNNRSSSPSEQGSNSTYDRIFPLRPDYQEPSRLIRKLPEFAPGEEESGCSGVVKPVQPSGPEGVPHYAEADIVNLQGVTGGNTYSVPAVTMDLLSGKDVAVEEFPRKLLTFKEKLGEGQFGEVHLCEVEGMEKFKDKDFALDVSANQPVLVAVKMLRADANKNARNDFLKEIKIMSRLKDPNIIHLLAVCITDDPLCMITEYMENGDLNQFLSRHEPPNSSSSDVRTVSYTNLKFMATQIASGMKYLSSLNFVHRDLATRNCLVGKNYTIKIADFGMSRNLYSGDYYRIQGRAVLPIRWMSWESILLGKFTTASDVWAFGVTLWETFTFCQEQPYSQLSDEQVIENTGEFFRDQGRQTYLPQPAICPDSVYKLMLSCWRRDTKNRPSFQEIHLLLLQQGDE
Protocol: Assays were performed in a 384 well plate format, using cell line HEK293 transfected with human DDR2 (PLT460F_(DDR2)-P7-1)
Cells were seeded at a density of 10'000 cells/well in 384well poly-D-lysine coated Black/clear plate (Cellcoat Greiner) and incubated in DMEM medium in the presence of 10% fetal bovine serum at 37° C., 5% CO2 for 48 h. Medium was replaced by serum-free medium and cells were incubated at 37° C., 5% CO2 for 8 h. Compound to be tested in 5% DMSO or 5% DMSO and 50 μg/ml of chicken collagen II were added and cells were incubated at 37° C., 5% CO2 for 16 h
Cells were rinsed with ice-cold PBS, lysed with lysis buffer (M-PER Thermo #78501) for 30 min at room temperature and centrifuged for 1 min at 1000 RPM. In parallel, White High binding 384 well plates (Corning) were coated with mouse anti-human DDR2 capture antibody (R&D Systems kit DuoSet IC Human phospho-DDR2 ELISA), overnight at RT.
An aliquot of cell lysate was transferred to the coated plates and incubated for 2 h at RT. Plates were washed and mouse anti-phospho-tyrosine detection antibody (R&D Systems kit DuoSet IC Human phospho-DDR2 ELISA) conjugated to horse radish peroxidase (HRP) was added for 2 h at RT. Plates were washed and chemiluminescent substrate for HRP (Thermo) was added for 15 min at RT. Luminescence was measured on a luminometer.

[3] = 4 nM DDR2 kinase domain, 150 μM ATP, 150 min at 22° C.
[4] = HEK293 transfected with human DDR2, 50 μg/ml chicken collagen II, 16 h
[5] = biochemical DDR2 autophosphorylation

Structure (SMILES) | IC50 [1, 3] [nM] | IC50 [2, 4] [nM] | IC50 [1, 5] [nM] | IC50 ([2]; cellular phospho-DDR2) [nM]
Cn1cc(C(F)(F)F)cc(NC(=O)NCc2ccc(Oc3ccnc4ccc(C(F)(F)F)cc34)cc2)c1=O [compound 2] | 400 | 5600 | – | –
COc1ccc(C(F)(F)F)cc1NC(=O)Nc1ccc(Cc2nc3cc[nH]c(=O)c3[nH]2)cc1 [compound 3] | 62 | 110 | – | –
Cn1cc(C(F)(F)F)cc(NC(=O)NCc2ccc(Oc3ccnc4[nH]ccc34)cc2)c1=O [compound 3] | 66 | 20 | – | –
O=C(Nc1ccc(Cc2nc3cc[nH]c(=O)c3[nH]2)cc1)Nc1cccc(C(F)(F)F)c1 [compound 4] | 25 | 320 | – | –
CNC(=O)c1cc(Oc2ccc(COC(=O)Nc3ccc(Cl)c(C(F)(F)F)c3)cc2)ccn1 [compound 6] | 420 | 270 | – | –
CNC(=O)c1cc(Oc2ccc(CNC(=O)Nc3cc(C)cnc3OC)cc2C)ccn1 [compound 20] | 110 | 41 | – | –
CNC(=O)c1cc(Oc2ccc(CNC(=O)Nc3cc(C)cnc3Cl)cc2C)ccn1 [compound 25] | 410 | 87 | – | –
COc1ncc(Cl)cc1NC(=O)NCc1ccc(Oc2ccnc(C)c2)cc1 [compound 27] | 190 | 42 | – | –
Cc1cc(Oc2ccc(CNC(=O)Nc3cc(C(F)(F)F)cnc3Cl)cc2)ccn1 [compound 29] | 350 | 94 | – | –
CNC(=O)c1cc(Oc2ccc(C(C)NC(=O)Nc3cc(Cl)ccc3OC)cc2)ccn1 (stereo not drawn) [compound 72, 4-(4-{1-[3-(5-Chloro-2-methoxy-phenyl)-ureido]-ethyl}-phenoxy)-pyridine-2-carboxylic acid methylamide] | – | – | 340 | 74
CNC(=O)c1cc(Oc2ccc(CNC(=O)Nc3cc(Cl)ccc3OC)cc2C)ccn1 [compound 100, 4-{4-[3-(5-Chloro-2-methoxy-phenyl)-ureidomethyl]-2-methyl-phenoxy}-pyridine-2-carboxylic acid methylamide] | – | – | 120 | 25
CNC(=O)c1cc(Oc2ccc(CNC(=O)Nc3c(OC)cc(Cl)c(C)c3Cl)cc2)ccn1 [compound 103, 4-{4-[3-(2,4-Dichloro-6-methoxy-3-methyl-phenyl)-ureidomethyl]-phenoxy}-pyridine-2-carboxylic acid methylamide] | – | – | 14000 | 4600
CNC(=O)c1cc(Oc2ccc(CNC(=O)Nc3cc(C)c(Cl)cc3OCCN3CCOCC3)cc2)ccn1 [compound 110, 4-(4-{3-[4-Chloro-5-methyl-2-(2-morpholin-4-yl-ethoxy)-phenyl]-ureidomethyl}-phenoxy)-pyridine-2-carboxylic acid methylamide] | – | – | 290 | 130
CNCCOc1ccc(C(F)(F)F)cc1NC(=O)NCc1ccc(Oc2ccnc(C(=O)NC)c2)cc1 [compound 111, 4-(4-{3-[2-(2-Methylamino-ethoxy)-5-trifluoromethyl-phenyl]-ureidomethyl}-phenoxy)-pyridine-2-carboxylic acid methylamide] | – | – | 64 | 24
CNC(=O)c1cc(Oc2ccc(CNC(=O)Nc3cc(C(F)(F)F)ccc3OCCN3CCNCC3)cc2)ccn1 [compound 112, 4-(4-{3-[2-(2-Piperazin-1-yl-ethoxy)-5-trifluoromethyl-phenyl]-ureidomethyl}-phenoxy)-pyridine-2-carboxylic acid methylamide] | – | – | 130 | 47
CNC(=O)c1cc(Oc2ccc(CNC(=O)Nc3cc(C)c(Cl)cc3OCCN(C)C)cc2)ccn1 [compound 118, 4-(4-{3-[4-Chloro-2-(2-dimethylamino-ethoxy)-5-methyl-phenyl]-ureidomethyl}-phenoxy)-pyridine-2-carboxylic acid methylamide] | – | – | 200 | 55
CNC(=O)c1cc(Oc2ccc(CNC(=O)Nc3cc(C)c(Cl)cc3OC3CCNCC3)cc2)ccn1 [compound 124, 4-(4-{3-[4-Chloro-5-methyl-2-(piperidin-4-yloxy)-phenyl]-ureidomethyl}-phenoxy)-pyridine-2-carboxylic acid methylamide] | – | – | 66 | 40
CNC(=O)c1cc(Oc2ccc(CNC(=O)Nc3cc(C(F)(F)F)ccc3-n3ccnc3)cc2C)ccn1 [compound 240, 4-{4-[3-(2-Imidazol-1-yl-5-trifluoromethyl-phenyl)-ureidomethyl]-2-methyl-phenoxy}-pyridine-2-carboxylic acid methylamide] | – | – | – | 2900
CNC(=O)c1cc(Oc2ccc(CNC(=O)Nc3cc(C(F)(F)F)ccc3-n3ccnc3)cc2)ccn1 [compound 243, 4-{4-[3-(2-Imidazol-1-yl-5-trifluoromethyl-phenyl)-ureidomethyl]-phenoxy}-pyridine-2-carboxylic acid methylamide] | – | – | – | 9400

Now from value to molecule:

IC50 [1, 3] [nM] | IC50 [2, 4] [nM] | IC50 [1, 5] [nM] | IC50 ([2]; cellular phospho-DDR2) [nM] | Structure (SMILES)
– | – | 30 | 14 | CNC(=O)c1cc(Oc2ccc(CNC(=O)Nc3cc(Cl)ccc3OC)cc2)ccn1 [compound 19]
130 | 58 | – | – | CNC(=O)c1cc(Oc2ccc(CNC(=O)Nc3cc(C(F)(F)F)cnc3Cl)cc2)ccn1 [compound 24]
– | – | 55 | 9 | CNC(=O)c1cc(Oc2ccc(CNC(=O)Nc3cc(Cl)c(C)cc3OC)cc2)ccn1 [compound 66, 4-{4-[3-(5-Chloro-2-methoxy-4-methyl-phenyl)-ureidomethyl]-phenoxy}-pyridine-2-carboxylic acid methylamide]
– | – | 100 | 24 | CNC(=O)c1cc(Oc2ccc(CNC(=O)Nc3cc(C)c(Cl)cc3OC)cc2)ccn1 [compound 78, 4-{4-[3-(4-Chloro-2-methoxy-5-methyl-phenyl)-ureidomethyl]-phenoxy}-pyridine-2-carboxylic acid methylamide]
– | – | 760 | 140 | CNC(=O)c1cc(Oc2ccc(CNC(=O)Nc3cc(OC)c(Cl)cc3OC)cc2)ccn1 [compound 83, 4-{4-[3-(4-Chloro-2,5-dimethoxy-phenyl)-ureidomethyl]-phenoxy}-pyridine-2-carboxylic acid methylamide]
– | – | 810 | 745 | CNC(=O)c1cc(Oc2ccc(CNC(=O)Nc3c(Cl)cncc3Cl)cc2)ccn1 [compound 84, 4-{4-[3-(3,5-Dichloro-pyridin-4-yl)-ureidomethyl]-phenoxy}-pyridine-2-carboxylic acid methylamide]
– | – | 1000 | 1450 | CNC(=O)c1cc(Oc2ccc(CNC(=O)Nc3ccnc(Cl)c3)cc2)ccn1 [compound 89, 4-{4-[3-(2-Chloro-pyridin-4-yl)-ureidomethyl]-phenoxy}-pyridine-2-carboxylic acid methylamide]
– | – | – | 710 | CNC(=O)c1cc(Oc2ccc(CNC(=O)Nc3ccc(NC(C)=O)c(C(F)(F)F)c3)cc2)ccn1 [compound 241, 4-{4-[3-(4-Acetylamino-3-trifluoromethyl-phenyl)-ureidomethyl]-phenoxy}-pyridine-2-carboxylic acid methylamide]
